Experimental data from the NIST ThermoML archive (doi:10.1016/j.fluid.2017.01.024).
“And” between values parts separate entries of the source, which are not always exact repeats. Identical values can stand only once. Numbers after ± are expanded uncertainties.

Conditions: Liquid, Closed cell (Static) method

Row | Compound | vapor or sublimation pressure (283.15 K) | vapor or sublimation pressure (293.15 K) | vapor or sublimation pressure (303.15 K) | vapor or sublimation pressure (313.15 K) [kPa] | vapor or sublimation pressure (323.15 K) | vapor or sublimation pressure (288.16 K) [kPa] | vapor or sublimation pressure (298.14 K) [kPa] | vapor or sublimation pressure (308.15 K) [kPa] | vapor or sublimation pressure (313.16 K) [kPa] | vapor or sublimation pressure (318.15 K) [kPa] | vapor or sublimation pressure (288.15 K) [kPa] | vapor or sublimation pressure (293.16 K) [kPa] | vapor or sublimation pressure (298.15 K) [kPa] | vapor or sublimation pressure (308.16 K) [kPa] | vapor or sublimation pressure (318.16 K) [kPa]
1 | FCF [difluoromethane] | 1107.3 ± 3.5 kPa | 1474 ± 4.7 kPa | 1925.8 ± 6.1 kPa | 2476.2 ± 7.8 | 3138 ± 9.8 kPa | – | – | – | – | – | – | – | – | – | –
2 | CCF [fluoroethane] | 601.4 ± 1.4 kPa and 601.4 ± 2 kPa | 805.6 ± 2.6 kPa and 805.6 ± 1.6 kPa | 1057.4 ± 3.3 kPa and 1057.4 ± 1.9 kPa | 1363.6 ± 4.3 | 1730.6 ± 5.4 kPa and 1730.6 ± 2.8 kPa | 698.2 ± 1.5 | 924.8 ± 1.7 | 1203.4 ± 2.1 | 1363.6 ± 2.3 | 1539 ± 2.5 | – | – | – | – | –
3 | C=C(F)C(F)(F)F [2,3,3,3-tetrafluoro-1-propene] | 437.4 ± 1.2 kPa and 437.4 ± 1.6 kPa | 591.7 ± 2 kPa | 782.5 ± 2.5 kPa and 782.5 ± 1.6 kPa | 1017.8 ± 3.2 | 1301.4 ± 4.1 kPa and 1301.4 ± 2.2 kPa | – | – | – | 1017.8 ± 1.8 | – | 509.9 ± 1.3 | 591.7 ± 1.4 | 681.9 ± 1.4 | 893.6 ± 1.7 | 1153.2 ± 2
